Reference: patent US20040224844A1, “Use of hydroxyaromatic compounds as safeners” (Bayer CropScience GmbH, priority 2003, published 2004)

Assays:
Type in all cases: in vivo
[1] = test system: Zea mays (corn), cv. 'Lorenzo'; assay: Post-emergence application of herbicide and safener by the tank mix method: crop damage; settings: for Safener action as % damage reduction in crop plants: ZEAMA
Source text: (§1) Seeds of various crop plants and weed species were sown in sandy loam soil in round plastic pots of a diameter of 13 cm and covered with a layer of sandy loam of a thickness of about 1 cm. The pots were placed in a greenhouse under favorable growth conditions for a period of about two to three weeks, allowing the plants to reach a growth stage of 2 to 4 leaves. The herbicides in the form of liquid (for example emulsion concentrates) or dry (for example water-dispersible powders) formulations were mixed with a standard additive (based on rapeseed oil methyl ester), diluted with deionized water to the required concentrations and applied to the green parts of the plants and the uncovered part of the soil surface with a spray bar using a water application rate of 300 liters per hectare. In the experiment shown below, safener and the herbicide foramsulfuron were in each case used as 20 percent strength water-dispersible powder (results see table 1.2.1).
(§2) The pots were placed in a greenhouse under favorable growth conditions. Visual scoring of the herbicidal action was carried out four weeks after the herbicide application. Evaluation was carried out on a percentage basis by comparison with untreated control plants (0%=no noticeable effect compared with the untreated plant, 100%=treated plant dies).

[2] = test system: Zea mays (corn), cv. 'Lorenzo'; assay: Post-emergence application of herbicide after seed dressing with safener; settings: for Safener action as % damage reduction in crop plants: ZEAMA
Procedure: (§3) The number of crop plant seeds required for each application rate of safener was calculated. Sufficient seeds were weighed out into glass bottles having a screw-on lid. The volume of the glass bottles was approximately twice that of the seeds weighed out.
(§4) The safeners were formulated as 20 percent strength water-dispersible powders. These formulations were weighed out to give the required application rates (g of a.i./kg of seed). The samples were added to the seeds in the glass containers, and sufficient water to form a suitable seed dressing was then added. The glass bottles were closed and then mounted in an overhead shaker (which turns the bottles at moderate speed for a period of up to one hour) so that the seeds were uniformly covered with the seed dressing. The bottles were opened and the seeds were ready for use in pre-emergence or post-emergence experiments, as described below.
as §1, with “The seeds treated with safener” for “Seeds of various crop plants”, “untreated seeds” for “weed species”, “2.3.1).” for “1.2.1).”
as §2, with “base” for “basis”

Amaranthus retroflexus = assay: Post-emergence application of herbicide and safener by the tank mix method: herbicidal action; settings: four weeks
Source text: as §1, §2

Setaria viridis [3] = assay: as above; settings: four weeks
Source text: as §1, §2

Chenopodium album = assay: Pre-emergence application of herbicide and safener by the tank mix method: herbicidal action; settings: four weeks
Procedure: (§5) Seeds of various crop plants and weed species were sown in sandy loam soil in plastic pots of a diameter of 13 cm and covered with a layer of sandy loam of a thickness of about 1 cm. Herbicides and safeners in the form of liquid (for example emulsion concentrates) or dry (for example water-dispersible powders) formulations were diluted with deionized water to the required concentration and applied to the surface of the soil with a spray bar using a water application rate of 300 liters per hectare. In the experiment shown below, the safeners were used as 20 percent strength water-dispersible powders and the herbicide isoxaflutole was used as an aqueous suspension concentrate (see table 1.1.1).
as §2

Setaria viridis [4] = assay: as above; settings: four weeks
Procedure: as §5, §2

[5] = test system: Glycine max (soybean), cv. 'Lambert'; assay: Pre-emergence application of herbicide after seed dressing with safener; settings: for Safener action as % damage reduction in crop plants: GLXMA
Procedure: as §3, §4
(§6) The seeds which had been treated with safeners and untreated seeds as controls were sown in sandy loam soil in round plastic pots of a diameter of 13 cm and covered with a layer of sandy loam of a thickness of about 1 cm. The herbicides in the form of liquid (for example emulsion concentrates) or dry (for example water-dispersible powders) formulations were diluted with deionized water to the required concentrations and applied to the surface of the soil with a spray bar using a water application rate of 300 liters per hectare. In the two experiments shown below (results see tables 2.2.1 and 2.2.2), the herbicide isoxaflutole was used as an aqueous suspension concentrate.
as §2

[6] = test system: Zea mays (corn), cv. 'Lorenzo'; assay: as above; settings: for Safener action as % damage reduction in crop plants: ZEAMA
Procedure: as §3, §4, §6, §2

[7] = test system: Zea mays (corn), cv. 'Lorenzo'; assay: Pre-emergence application of herbicide and safener by the tank mix method: crop damage
Procedure: as §5, §2

[8] = herbicide H2 (foramsulfuron) 40 g of a.i./ha alone, no safener, post-emergence
[9] = safener 250 g of a.i./ha + herbicide H2 (foramsulfuron) 40 g of a.i./ha, post-emergence tank mix
[10] = safener 250 g of a.i./ha + herbicide H1 (isoxaflutole) 100 g of a.i./ha, pre-emergence tank mix
[11] = seed dressing with safener 1 g of a.i./kg of seed, herbicide H1 (isoxaflutole) 100 g of a.i./ha pre-emergence
[12] = seed dressing with safener 1 g of a.i./kg of seed, herbicide H2 (foramsulfuron) 40 g of a.i./ha post-emergence
[13] = herbicide H1 (isoxaflutole) 100 g of a.i./ha alone, no safener, pre-emergence
[14] = seed dressing with safener 1 g of a.i./kg of seed, herbicide H1 (isoxaflutole) 100 g of a.i./ha pre-emergence, four weeks

Structure (SMILES)	% damage in ZEAMA ([2]; in vivo) [%]	Safener action as % damage reduction in crop plants [1, 9] [%]	Herbicidal action in CHEAL (in %) (Chenopodium album; [10]) [%]	Herbicidal action in SETVI (in %) (Setaria viridis [4]; [10]) [%]	Safener action as % damage reduction in crop plants [5, 11] [%]	% damage in GLXMA ([5]; in vivo) [%]	Safener action as % damage reduction in crop plants [6, 11] [%]	% damage in ZEAMA ([6]; in vivo) [%]	Safener action as % damage reduction in ZEAMA [7, 10] [%]	Safener action as % damage reduction in crop plants [2, 12] [%]	Herbicidal action as % damage in AMARE (Amaranthus retroflexus; [9]) [%]	Herbicidal action as % damage in SETVI (Setaria viridis [3]; [9]) [%]	also measured
COc1cc(OC)nc(NC(=O)NS(=O)(=O)c2cc(NC=O)ccc2C(=O)N(C)C)n1 [Herbicide H2, foramsulfuron, reference compound]	35	–	–	–	–	–	–	–	–	–	–	–	% damage in ZEAMA ([1]; in vivo): 32%; Herbicidal action as % damage in AMARE (Amaranthus retroflexus; [8]): 90%; Herbicidal action as % damage in SETVI (Setaria viridis [3]; [8]): 93%
O=C(O)c1cc(O)cc(O)c1 [Comp. 1050, 3,5-dihydroxybenzoic acid]	5	69	97	96	64	28	75	5	88	86	90	97	–
CS(=O)(=O)c1cc(C(F)(F)F)ccc1C(=O)c1cnoc1C1CC1 [Herbicide H1, isoxaflutole, reference compound]	–	–	–	–	–	78	–	20	–	–	–	–	Herbicidal action in CHEAL (in %) (Chenopodium album; [13]): 94%; Herbicidal action in SETVI (in %) (Setaria viridis [4]; [13]): 96%; % damage in ZEAMA ([7]; in vivo): 25%
COc1cc(C(=O)O)cc(OC)c1O [Comp. 1272, 3,5-dimethoxy-4-hydroxybenzoic acid]	–	53	94	98	55	–	50	–	52	79	92	95	% damage in ZEAMA ([1]; safener 250 g of a.i./ha + herbicide H2 (foramsulfuron) 40 g of a.i./ha, post-emergence tank mix, visual scoring four weeks after application): 15%; % damage in GLXMA [5, 14]: 35%; % damage in ZEAMA [6, 14]: 10%; % damage in ZEAMA ([7]; safener 250 g of a.i./ha + herbicide H1 (isoxaflutole) 100 g of a.i./ha, pre-emergence tank mix, visual scoring four weeks after application): 12%; % damage in ZEAMA ([2]; seed dressing with safener 1 g of a.i./kg of seed, herbicide H2 (foramsulfuron) 40 g of a.i./ha post-emergence, four weeks): 7.5%
